IC50 data for four molecules are collected here from ChEMBL document CHEMBL1149890, “Brianodins A-D, briarane-type diterpenoids from soft coral Pachyclavularia sp” (J Nat Prod, 2008).

In brackets after ≈: the same amount, converted by molar mass.

The subject of one test is KB. As to the kind of experiment: Cytotoxicity against human KB cells. It counts as functional, cell-based.
The subject of the next test is L1210. As to the kind of experiment: Cytotoxicity against mouse L1210 cells. The format is functional, cell-based.

By IC50 is commonly meant the concentration at which inhibition is half-maximal. The low end stands for greater potency, the high end for weaker potency. As for `CC(=O)O[C@@H]1[C@H](O)[C@@H](OC(C)=O)/C(C)=C\[C@@H]2OC(=O)[C@@](C)(O)[C@@]2(O)[C@@H](OC(C)=O)[C@H]2[C@](C)(O)[C@H](O)C=C[C@]12C` [BRIANODIN C], in the test with KB, the half-maximal inhibitory concentration (IC50) is more than 10 µg/mL.
With `CC(=O)O[C@@H]1C/C(C)=C\[C@@H]2OC(=O)[C@@](C)(O)[C@@]2(O)[C@@H](OC(C)=O)[C@H]2[C@](C)(O)[C@H](O)C=C[C@]2(C)[C@@H]1O` [BRIANODIN D], in the test on KB, the IC50 is more than 10 µg/mL.
In the test with KB, `CC(=O)O[C@@H]1[C@H](O)[C@@H](OC(C)=O)/C(C)=C\[C@@H]2OC(=O)[C@@](C)(O)[C@@]2(O)[C@@H](OC(C)=O)[C@H]2[C@](C)(O)[C@H](OC(C)=O)C=C[C@]12C` [BRIANODIN B] registered a half-inhibitory concentration (IC50) of more than 10 µg/mL.
In the case of `CC(=O)O[C@@H]1C/C(C)=C\[C@@H]2OC(=O)[C@]3(C)O[C@]23[C@@H](OC(C)=O)[C@H]2[C@](C)(O)[C@H](OC(C)=O)C=C[C@]2(C)[C@@H]1O` [BRIANODIN A], the values for the IC50 in the test on L1210 and in the test on KB were 1.8 µg/mL (≈ 3.44 µM) and 4.3 µg/mL (≈ 8.23 µM), respectively.
